The subject of data set [1] is human intestinal microbial ecosystem (colonic microbiota). Put plainly: Simulated digestion of PRPE in the dynamic multi-reactor GI model, LC-MS phenolic profile of pooled colonic digesta. Further: key: (+) present; (T) trace amount. The format is in vitro ADME. The settings on record: pooled digesta of three colonic vessels, 24 h. The source says:
PRPE was subjected to in vitro digestion by the GI model as described previously in detail. Briefly, the model was composed of five double-jacketed vessels representing the stomach, the small intestine, the ascending colon, the transverse colon, and the descending colon. The model was fully computer controlled. The pH was automatically controlled by addition of 0.2 M HCl and 0.5 M NaOH solution upon a change in pH in the vessels to simulate the in vivo conditions in the different segments of the human gastrointestinal tract. The temperature was kept at 37 °C and anaerobic conditions were maintained in the fermentation vessels by flushing nitrogen gas for 20 min into the airspace every day. The experiment was started after a 2-week stabilization period in which fecal slurry, obtained from five healthy volunteers with no history of GI disease or antibiotic use in the previous six months, were inoculated into the last three vessels. After the 2-week stabilization period, 130 g PRPE was dissolved in the GI food mixture, which was composed of the following ingredients: arabinolactan, pectin, xylan, starch, glucose, yeast extracts, peptone, mucin, and cysteine powders—a composition previously developed by Molly et al. (1993). The GI food mixture was stored at 4 °C during the study. Samples were collected from all three colonic vessels before and 24 h after addition of PRPE to the GI digestion model. Each digestion was carried out in triplicate. Samples were centrifuged at 1000× g and stored at −80 °C for later analysis by liquid chromatography–mass spectrometry (LC-MS) and for the cell culture experiments.
The samples that were collected from the last three colonic vessels of the gut model after 24 h digestion were pooled after each experiment and prepared according to the method described previously. The samples were centrifuged at 36,000× g, 4 °C for 2 h. The supernatant was collected and the pH was neutralized to pH 7 before being filter sterilized with a 25 mm syringe filter (0.2 µm, MCE, Fisher Scientific, Ottawa, ON, Canada) and stored at −80 °C until used for the Caco-2/HepG2 cell experiments. Samples collected before the addition of PRPE were considered as the controls.
This condition was maintained for 3 min.

A further data set has as its system Caco-2 cells. Put plainly: Caco-2 cell transport bioassay (Caco-2/HepG2 co-culture, 2 h). The settings on record: for Percentage of Digesta Value, A (2 h) / Percentage of Digesta Value, B (2 h): PRPE digesta 10% (v/v); for Percentage of Digesta Value, A (2 h) / Percentage of Control Value at 0 h, A (2 h): apical chamber after 2 h; for Percentage of Digesta Value, B (2 h) / Percentage of Control Value at 0 h, B (2 h): basolateral chamber after 2 h; for Percentage of Control Value at 0 h, A (2 h) / Percentage of Control Value at 0 h, B (2 h): control digesta. Also on record: Percentage of Control Value at 0 h, A (2 h) / Percentage of Control Value at 0 h, B (2 h): concentration or dose not given beside the values. The format is in vitro ADME, human.

Another data set deals with HepG2 cells. Put plainly: HepG2 cell metabolism bioassay (basolateral chamber, further 3 h). The settings on record: for Fold increase of basolateral concentration after HepG2 incubation: 3 h with HepG2 cells, relative to initial basolateral value.
Data set [2] has as its system Caco-2 and HT29-MTX cells. Also on record: method as in PMID 18154874. The settings on record: 1-h co-culture of Caco-2 and HT29-MTX cells; cited from earlier work.
For another data set, the system named is Caco-2 cell monolayer. On the set-up: method as in PMID 12784628. The conditions noted are these: cited from earlier work.
Setting [3] is: listed as 3-hydroxyphenylacetic acid.
The mark [4] stands for this setting: PRPE digesta, basolateral chamber after 3 h with HepG2 cells alone (t = 5 h), relative to basolateral value at 2 h.
The mark [5] stands for this setting: control digesta, basolateral chamber after 3 h with HepG2 cells (t = 5 h).

“And” between values parts separate entries of the source, which are not always exact repeats. Equal entries are not always repeated. “Also recorded” adds a separate entry of the source.

Description for Caco-2 cells: Cells were obtained from the American Type Culture Collection (ATCC, Burlington, ON, Canada) and cultured according to the company’s procedures and Li et al. (2007) [23], as briefly explained below. […] Cells were incubated at 37 °C with 5% CO2 and 90% humidity and were monitored daily. The cells were subcultured at 80% confluence with a 0.25% trypsin-EDTA solution for 5–10 min and were cultured in a new flask or seeded onto an HTS Multiwell™ insert system with polyethylene terephthalate membrane (12 wells, 0.4 μM pore size, 1.12-cm^2 area).
(§1) During this time, the medium was changed every other day. Before starting the treatments, the integrity of the monolayer was checked by measuring the transepithelial electrical resistance (TEER). […] Caco-2 monolayers having reached a TEER of 250 ohm/cm^2 or greater were used for the transport experiment [29]. […] Medium (500 µL) containing digesta of PRPE was added to the apical side of the wells and incubated for up to 2 h. […] Samples were taken from the receiver well after 2 and 5 h. […] All samples were centrifuged at 2000× g for 15 min and the supernatants were stored at −20 °C for further analysis by LC-MS.
After thawing, samples were vortexed and filtered using 25 mm syringe filters (0.45 µm, MCE, Fisher Scientific, Ottawa, ON, Canada) and transferred to HPLC vials for LC-MS analysis. Phenolic compounds were separated using a reverse phase column Gemini-NX (5 µm, 100 mm × 4.6 mm) (Phenomenex, Torrance, CA, USA) with a 4.6 mm × 2.0 mm guard column based on a method developed by Shakya and Navarre (2006) [30] and modified in our previous work [12]. Phenolic compounds and metabolites were eluted using a gradient of solvent A (10 mM formic acid, pH 3.5) and B (5 mM ammonium formate solution in 100% methanol), starting with 5% B, increasing to 30% B in 5 min, 70% B in 7 min, and 100% B at 9 min. This condition was maintained for 3 min. A solvent flow rate of 1.0 mL/min was used and 20 µL of sample was injected into the LC system. Accurate mass data were obtained using an Agilent 1200 series HPLC system equipped with an Agilent 6210 electrospray ionization, time-of-flight (ESI-TOF) mass spectrometer (Agilent, Santa Clara, CA, USA), with internal mass calibration. The analyses were performed in both positive and negative modes and the data was acquired over a mass range of m/z 100–1000. The source parameter settings were: temperature 350 °C, gas flow 12 L/min, nebulizer 50 psi capillary voltage (+/−) 4000 V, fragmentor 100 V, and skimmer voltage 60 V. Reference masses (internal calibration of high resolution spectra) were m/z 121.050873, 922.009798 for positive mode and m/z 119.03632, 966.000725 for negative mode. The data were acquired and processed using Agilent Mass Hunter software version B.04.00.
Description for HepG2 cells: Cells were incubated at 37 °C with 5% CO2 and 90% humidity and were monitored daily.
as §1
After thawing, samples were vortexed and filtered using 25 mm syringe filters (0.45 µm, MCE, Fisher Scientific, Ottawa, ON, Canada) and transferred to HPLC vials for LC-MS analysis. […] Phenolic compounds and metabolites were eluted using a gradient of solvent A (10 mM formic acid, pH 3.5) and B (5 mM ammonium formate solution in 100% methanol), starting with 5% B, increasing to 30% B in 5 min, 70% B in 7 min, and 100% B at 9 min. This condition was maintained for 3 min. A solvent flow rate of 1.0 mL/min was used and 20 µL of sample was injected into the LC system. […] The analyses were performed in both positive and negative modes and the data was acquired over a mass range of m/z 100–1000. […] The data were acquired and processed using Agilent Mass Hunter software version B.04.00. […] The relative abundance of the compounds was calculated relative to the quantification of benzoic acid as the reference peak, as benzoic acid was present in all the cellular compartments at the same concentration at all time points.

Turning to `O=C(O)Cc1cccc(O)c1` [3-Hydroxyphenylacetic acid], the “Presence after human simulated intestinal digestion of PRPE” value (“Presence” below) in data set [1] was “+”. Also, in the data set with Caco-2 cells, the “Percentage of Digesta Value, A (2 h)” value is on record as 70%; the “Percentage of Digesta Value, B (2 h)” value is recorded as “-”; the “Percentage of Control Value at 0 h, A (2 h)” value (from here on “Percentage … at 0 h, A (2 h)”) is 100%; the “Percentage of Control Value at 0 h, B (2 h)” value (shortened to “Percentage … at 0 h, B (2 h)”) is reported as “-”. In the data set with Caco-2 cells (setting [3]), the “Percentage of Digesta Value, A (2 h)” value is listed as 65–70% and the “Percentage of Digesta Value, B (2 h)” value was “not detected; also recorded: none of these three compounds were measurable”. Further, the “Percentage of Basolateral Value, B (5 h)” value in the data set on HepG2 cells (setting [4]) was “-”. Moreover, the “Percentage of Basolateral Value, B (5 h)” value with HepG2 cells (setting [5]) was “-”.
Consider `C[C@@H]1O[C@@H](OC[C@H]2O[C@@H](Oc3c(-c4ccc(O)c(O)c4)oc4cc(O)cc(O)c4c3=O)[C@H](O)[C@@H](O)[C@@H]2O)[C@H](O)[C@H](O)[C@H]1O` [Rutin, Quercetin-3-O-rutinoside], for which, in data set [1], the “Presence” value is on record as “+”.
For `O=C(O)CCc1ccc(O)c(O)c1` [Dihydrocaffeic acid, 3-(3′,4′-Dihydroxyphenyl)propionic acid], in data set [1], the “Presence” value is recorded as “+”. Also, in the data set on Caco-2 cells, the “Percentage of Digesta Value, A (2 h)” value is reported as 67%; the “Percentage of Digesta Value, B (2 h)” value is listed as 15%; the “Percentage … at 0 h, A (2 h)” value was found to be 26%; the “Percentage … at 0 h, B (2 h)” value is recorded as 26%. Moreover, in the data set on Caco-2 cells (listed as dihydrocaffeic acid), the “Percentage of Digesta Value, B (2 h)” value is 10–15% and 10%. For the same compound, the “Permeability across Caco-2 cells” value in data set [2] is on record as 0.5%. Besides, the “Fold increase of basolateral concentration after HepG2 incubation” value (“Fold increase” below) with HepG2 cells (PRPE digesta) is “three-fold increase”. In the data set on HepG2 cells (setting [4]), the “Percentage of Basolateral Value, B (5 h)” value amounted to 338%. The “Percentage of Basolateral Value, B (5 h)” value in the data set with HepG2 cells (PRPE digesta, basolateral chamber after 3 h with HepG2 cells alone (t = 5 h), relative to basolateral value at 2 h, listed as dihydrocaffeic acid) is listed as 160–370%. In the data set on HepG2 cells (setting [5]), the “Percentage of Basolateral Value, B (5 h)” value came out at 123%.
Consider `COc1cc(/C=C/C(=O)O)ccc1O` [Ferulic acid, (E)-3-(4-Hydroxy-3-methoxy-phenyl)prop-2-enoic acid], for which the “Presence” value in data set [1] is reported as “+”. Also, the “Percentage of Digesta Value, A (2 h)” value in the data set with Caco-2 cells turned out to be 90%. Also, the figures for the “Percentage of Digesta Value, B (2 h)” value with Caco-2 cells and with Caco-2 cells (listed as ferulic acid) were 11% and 10–15%, respectively. Further, the “Percentage transported to the basolateral side of the Caco-2 cell monolayer” value with Caco-2 cell monolayer was 3.42%. Also, the “Fold increase” value with HepG2 cells (PRPE digesta) came out at 1.6 fold. The “Percentage of Basolateral Value, B (5 h)” value was 166% in the data set with HepG2 cells (setting [4]) and 160–370% with HepG2 cells (PRPE digesta, basolateral chamber after 3 h with HepG2 cells alone (t = 5 h), relative to basolateral value at 2 h, listed as ferulic acid).
As for `O=C(O)/C=C/c1ccc(O)cc1` [Coumaric acid], the “Presence” value in data set [1] was “+”. Further, the “Percentage of Digesta Value, A (2 h)” value in the data set on Caco-2 cells came to 68%. Besides, the “Percentage of Digesta Value, B (2 h)” value in the data set on Caco-2 cells was 3%; with Caco-2 cells (listed as coumaric acid), 3–5%. Moreover, the “Fold increase” value with HepG2 cells (PRPE digesta) was “More than a two-fold increase”. In the data set on HepG2 cells (setting [4]), the “Percentage of Basolateral Value, B (5 h)” value is given as 212%.
In the case of `O=C(O)c1ccccc1` [Benzoic acid], the “Presence” value in data set [1] was “+”. Moreover, in the data set on Caco-2 cells, the “Percentage of Digesta Value, A (2 h)” value is given as “+”; the “Percentage of Digesta Value, B (2 h)” value is “+”; the “Percentage … at 0 h, A (2 h)” value is given as “+”; the “Percentage … at 0 h, B (2 h)” value was “+”. Also, the “Percentage of Basolateral Value, B (5 h)” value in the data set with HepG2 cells (setting [4]) was “+”. Further, the “Percentage of Basolateral Value, B (5 h)” value in the data set with HepG2 cells (setting [5]) is “+”.
Turning to `O=C(O)c1cccc(O)c1` [3-Hydroxybenzoic acid], the “Presence” value in data set [1] is reported as “+”. Also, the “Percentage of Digesta Value, A (2 h)” value in the data set with Caco-2 cells is 50%. Moreover, the “Percentage of Digesta Value, B (2 h)” value is listed as 5% in the data set on Caco-2 cells and 3–5% in the data set with Caco-2 cells (listed as 3-hydroxybenzoic acid). The “Percentage of Basolateral Value, B (5 h)” value is listed as 100% in the data set with HepG2 cells (setting [4]) and “unchanged” in the data set on HepG2 cells (PRPE digesta, basolateral chamber after 3 h with HepG2 cells alone (t = 5 h), relative to basolateral value at 2 h, listed as 3-hydroxybenzoic acid).
As to `O=C(O)c1ccc(O)c(O)c1` [Protocatechuic acid, 3,4-Dihydroxybenzoic acid], the “Presence” value in data set [1] is reported as “+”.
The same measure, in the same setting: to `O=C(O)C=Cc1ccccc1` [Cinnamic acid, 3-Phenylprop-2-enoic acid] belongs “+”.
Turning to `O=C(O)CCc1ccccc1` [Phenylpropanoic acid], the “Presence” value in data set [1] is “+”. Moreover, in the data set with Caco-2 cells, the “Percentage of Digesta Value, A (2 h)” value turned out to be 65%; the “Percentage of Digesta Value, B (2 h)” value is “-”; the “Percentage … at 0 h, A (2 h)” value is 100%; the “Percentage … at 0 h, B (2 h)” value was “-”. Also, in the data set on Caco-2 cells (listed as phenylpropanoic acid), the “Percentage of Digesta Value, A (2 h)” value is recorded as 65–70% and the “Percentage of Digesta Value, B (2 h)” value is “not detected; also recorded: none of these three compounds were measurable”. Besides, the “Percentage of Basolateral Value, B (5 h)” value in the data set on HepG2 cells (setting [4]) is given as “-”. The “Percentage of Basolateral Value, B (5 h)” value in the data set with HepG2 cells (setting [5]) is listed as “-”.
Turning to `COc1cc(C(=O)O)ccc1O` [Vanillic acid, 4-Hydroxy-3-methoxybenzoic acid], in data set [1], the “Presence” value is recorded as “+”.
Regarding `COc1cc(CCC(=O)O)ccc1O` [Dihydroferulic acid, 3-(4-Hydroxy-3-methoxyphenyl)propionic acid], the “Presence” value in data set [1] is given as “+”. Moreover, in the data set with Caco-2 cells, the “Percentage of Digesta Value, A (2 h)” value is 78%. Besides, the “Percentage of Digesta Value, B (2 h)” value is 10% in the data set on Caco-2 cells; 10–15% and 15% in the data set with Caco-2 cells (listed as dihydroferulic acid). For the same compound, the “Percentage of Basolateral Value, B (5 h)” value in the data set on HepG2 cells (setting [4]) worked out at 78%.
Turning to `O=C(O)CCc1cccc(O)c1` [3-Hydroxyphenylpropionic acid, 3-(3-Hydroxyphenyl)propionic acid], the “Presence” value in data set [1] is recorded as “+”. Further, in the data set on Caco-2 cells, the “Percentage of Digesta Value, A (2 h)” value is 69%; the “Percentage of Digesta Value, B (2 h)” value amounted to 4%; the “Percentage … at 0 h, A (2 h)” value was 90%; the “Percentage … at 0 h, B (2 h)” value is on record as “-”. In the data set with Caco-2 cells (listed as 3-hydroxyphenylpropionic acid), the “Percentage of Digesta Value, B (2 h)” value is 3–5%. For the same compound, in the data set on HepG2 cells (PRPE digesta), the “Fold increase” value is 2.3 fold. Further, the “Percentage of Basolateral Value, B (5 h)” value with HepG2 cells (setting [4]) amounted to 233%. The “Percentage of Basolateral Value, B (5 h)” value in the data set with HepG2 cells (PRPE digesta, basolateral chamber after 3 h with HepG2 cells alone (t = 5 h), relative to basolateral value at 2 h, listed as 3-hydroxyphenylpropionic acid) is listed as 160–370%. In addition, the “Percentage of Basolateral Value, B (5 h)” value in the data set on HepG2 cells (setting [5]) is on record as “-”.

Values taken from PMC5789271, “Absorption and Metabolism of Phenolics from Digests of Polyphenol-Rich Potato Extracts Using the Caco-2/HepG2 Co-Culture System” (Foods, 2018).
